Tests used:
[1] = target: Histamine H1 receptor (Homo sapiens, UniProt P35367); assay: Binding affinity towards Histamine H1 receptor of human membranes.
[2] = target: Histamine H3 receptor (Rattus norvegicus, UniProt Q9QYN8); assay: Binding affinity towards Histamine H3 receptor of rat cortical membranes.
[3] = target: Histamine H2 receptor (Homo sapiens, UniProt P25021); assay: Binding affinity towards Histamine H2 receptor from human membranes
[4] = Oral bioavailability in rat (dose 5 mg/kg p.o.); format: ADME, organism-based; conditions: in vivo

Chain of Histamine H1 receptor (P35367 whole entry): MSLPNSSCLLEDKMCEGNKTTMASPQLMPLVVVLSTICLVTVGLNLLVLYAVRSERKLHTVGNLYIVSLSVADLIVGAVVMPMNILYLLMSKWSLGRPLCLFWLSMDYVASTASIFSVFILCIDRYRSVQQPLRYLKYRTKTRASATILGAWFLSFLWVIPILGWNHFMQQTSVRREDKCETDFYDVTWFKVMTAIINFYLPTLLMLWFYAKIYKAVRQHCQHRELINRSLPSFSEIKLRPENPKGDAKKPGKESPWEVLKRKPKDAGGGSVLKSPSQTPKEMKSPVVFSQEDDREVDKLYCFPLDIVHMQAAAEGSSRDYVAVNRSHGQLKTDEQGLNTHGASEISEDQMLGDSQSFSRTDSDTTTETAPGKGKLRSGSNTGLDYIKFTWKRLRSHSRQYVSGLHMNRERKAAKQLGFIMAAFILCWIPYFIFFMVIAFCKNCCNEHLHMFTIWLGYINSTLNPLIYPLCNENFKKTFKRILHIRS
Chain of Histamine H2 receptor (P25021 whole entry): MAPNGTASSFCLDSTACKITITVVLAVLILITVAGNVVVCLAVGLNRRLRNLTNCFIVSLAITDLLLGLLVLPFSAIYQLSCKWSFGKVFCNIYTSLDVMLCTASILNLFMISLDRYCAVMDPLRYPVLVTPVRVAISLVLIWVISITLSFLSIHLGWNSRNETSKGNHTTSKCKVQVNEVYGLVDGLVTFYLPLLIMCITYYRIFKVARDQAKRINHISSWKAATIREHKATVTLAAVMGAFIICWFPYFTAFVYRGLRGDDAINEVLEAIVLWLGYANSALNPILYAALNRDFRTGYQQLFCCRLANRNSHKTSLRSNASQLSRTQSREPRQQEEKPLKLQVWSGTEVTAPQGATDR
Chain of Histamine H3 receptor (Q9QYN8 whole entry): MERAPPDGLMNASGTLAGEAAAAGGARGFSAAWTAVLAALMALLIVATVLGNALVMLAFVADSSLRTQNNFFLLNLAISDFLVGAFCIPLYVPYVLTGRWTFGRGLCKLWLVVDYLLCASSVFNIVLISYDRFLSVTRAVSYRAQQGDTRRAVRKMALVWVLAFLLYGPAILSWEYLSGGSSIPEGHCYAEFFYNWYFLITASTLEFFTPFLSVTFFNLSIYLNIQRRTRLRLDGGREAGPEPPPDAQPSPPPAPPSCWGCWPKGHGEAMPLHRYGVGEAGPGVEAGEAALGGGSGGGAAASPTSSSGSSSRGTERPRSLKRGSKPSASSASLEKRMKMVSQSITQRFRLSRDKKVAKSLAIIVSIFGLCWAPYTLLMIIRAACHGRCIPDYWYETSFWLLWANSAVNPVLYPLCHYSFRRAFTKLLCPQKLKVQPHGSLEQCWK

Row | Structure (SMILES) | Ki [1] [µM] | Ki [2] [nM] | Ki [3] [µM] | bioavailability [4] [%]
1 | CCCCCC(=O)c1ccc(OCCCN2CCN(C(=O)[C@H](CC(C)C)NC(=O)OC(C)(C)C)CC2)cc1 | 8.13 | 112 | 3.47 | –
2 | N[C@H](Cc1nccs1)C(=O)N1CCN(CCCOc2ccc(C(=O)C3CC3)cc2)CC1 | 100 | 5.75 | 97.7 | –
3 | CCCCCC(=O)c1ccc(OCCCN2CCN(C(=O)[C@H](Cc3ccncc3)NC(=O)OC(C)(C)C)CC2)cc1 | 9.33 | 53.7 | 14.8 | –
4 | O=C(c1ccc(OCCCN2CCN(C(=O)[C@@H]3CCN3)CC2)cc1)C1CC1 | 10 | 12.9 | 12.3 | –
5 | CC[C@H](N)C(=O)N1CCN(CCCOc2ccc(C(=O)C3CC3)cc2)CC1 | 4.68 | 2.51 | 10.7 | –
6 | CN[C@@H](C(=O)N1CCN(CCCOc2ccc(C(=O)C3CC3)cc2)CC1)C(C)C | 34.7 | 75.9 | 49 | –
7 | CC(C)(C)C[C@@H](N)C(=O)N1CCN(CCCOc2ccc(C(=O)C3CC3)cc2)CC1 | 10.2 | – | – | –
8 | N[C@H](Cc1cccc2ccccc12)C(=O)N1CCN(CCCOc2ccc(C(=O)C3CC3)cc2)CC1 | 2 | 214 | 20.9 | –
9 | CC(C)N[C@H](C)C(=O)N1CCN(CCCOc2ccc(C(=O)C3CC3)cc2)CC1 | 46.8 | 8.71 | 50.1 | –
10 | CCCCCC(=O)c1ccc(OCCCN2CCN(C(=O)[C@H](N)CC(C)C)CC2)cc1 | 14.5 | 61.7 | 14.1 | –
11 | CCCCCC(=O)c1ccc(OCCCN2CCN(C(=O)[C@@H](CO)NC(=O)OC(C)(C)C)CC2)cc1 | 17 | 2.4 | 22.9 | –
12 | N[C@@H](C(=O)N1CCN(CCCOc2ccc(C(=O)C3CC3)cc2)CC1)C1Cc2ccccc2C1 | 10.7 | 26.3 | 19.1 | –
13 | O=C(c1ccc(OCCCN2CCN(C(=O)[C@H]3CCN3)CC2)cc1)C1CC1 | 12.6 | 1.32 | 14.1 | –
14 | N[C@H](Cc1ccc(-c2ccccc2)cc1)C(=O)N1CCN(CCCOc2ccc(C(=O)C3CC3)cc2)CC1 | 12 | 132 | 20.4 | –
15 | CCCCCC(=O)c1ccc(OCCCN2CCN(C(=O)[C@@H](N)CC(C)C)CC2)cc1 | 9.77 | 170 | 16.6 | –
16 | O=C(c1ccc(OCCCN2CCN(C(=O)[C@H]3CCCN3)CC2)cc1)C1CC1 | 37.2 | 30.2 | 53.7 | –
17 | CCCCCC(=O)c1ccc(OCCCN2CCN(C(=O)OCC)CC2)cc1 | – | – | – | 0
18 | CC[C@@H](N)C(=O)N1CCN(CCCOc2ccc(C(=O)C3CC3)cc2)CC1 (stereo in doubt; 57) | 2.09 | 1.95 | 11 | –
19 | CCCCCC(=O)c1ccc(OCCCN2CCN(C(=O)[C@@H](N)Cc3ccncc3)CC2)cc1 | 2.29 | 10.2 | 34.7 | –
20 | N[C@H](CCc1ccccc1)C(=O)N1CCN(CCCOc2ccc(C(=O)C3CC3)cc2)CC1 | 10 | 4.57 | 10 | –
21 | N[C@H](Cc1cc2ccccc2s1)C(=O)N1CCN(CCCOc2ccc(C(=O)C3CC3)cc2)CC1 | 4.37 | 288 | 15.1 | –
22 | C[C@H](CN)C(=O)N1CCN(CCCOc2ccc(C(=O)C3CC3)cc2)CC1 | 1.74 | 8.91 | 10.7 | –
23 | CCCCCC(=O)c1ccc(OCCCN2CCN(C(=O)[C@@H](C)NC(=O)OC(C)(C)C)CC2)cc1 | 6.76 | 1.23 | 10.7 | –
24 | CCCCCC(=O)c1ccc(OCCCN2CCN(C(=O)[C@@H](NC(=O)OC(C)(C)C)C(C)C)CC2)cc1 | 10.7 | 97.7 | 12.6 | –
25 | CNCC(=O)N1CCN(CCCOc2ccc(C(=O)C3CC3)cc2)CC1 | 100 | 2.29 | 79.4 | –
26 | CCCCCC(=O)c1ccc(OCCCN2CCN(C(=O)[C@@H](N)C(C)C)CC2)cc1 | 19.1 | 79.4 | 38 | –
27 | CC(C)(C)OC(=O)N[C@H](Cc1ccccc1)C(=O)N1CCN(CCCOc2ccc(C(=O)C3CC3)cc2)CC1 | 5.5 | 3.98 | 10 | –
28 | CCCCCC(=O)c1ccc(OCCCN2CCN(C(=O)[C@@H](CC(C)C)NC(=O)OC(C)(C)C)CC2)cc1 | 4.68 | 14.5 | 4.47 | –

— ChEMBL document CHEMBL1135199, “Structure-activity relationships of non-imidazole H(3) receptor ligands. Part 2: binding preference for D-amino acids motifs” (Bioorg Med Chem Lett, 2002)
